Measurements from PubChem BioAssay (NCI).
“And” between values parts separate entries of the source, which are not always exact repeats. Identical values can stand only once.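 Where inhibition never reached the appropriate level, the endpoint shown equals the highest concentration tested. Otherwise, values were interpolated linearly from a five-concentration, 48-hour dose response in 96-well plates. GI50 is the concentration that inhibits growth by half. Definition used: TGI = concentration required for complete inhibition of growth.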

What was measured:
BT-549 breast = assay: NCI anticancer screen, dose series, 48 h
MCF7 breast = assay: NCI anticancer screen, dose series, 48 h

SMILES	GI50 (BT-549 breast)	TGI (BT-549 breast)	GI50 (MCF7 breast)	TGI (MCF7 breast)
COc1cc(Nc2nc(N[C@H]3CCCC[C@@H]3N)nc3cc[nH]c(=O)c23)cc(OC)c1	1.57 µM	5.03 µM	1.37 µM	8.44 µM
CN(C)c1ccc2cc(-c3ccccc3F)c(N)nc2c1	2.57 µM	10.6 µM	0.431 µM	14.4 µM
CC1OC2CC(=O)OC2C2=C1C(=O)c1c(O)c3c(c(O)c1C2=O)C1CC(O)C3(O)C(C)O1 (stereo not drawn)	1.1 µM	2.32 µM	0.126 µM	0.366 µM
CO/N=C(\C)c1ccc(Nc2cc(-c3ccccc3)nc3c(O)cccc23)cc1	15.5 µM	32.7 µM	–	–
CC(=O)Nc1ccc2c(c1)oc(=O)c1cc(NC(C)=O)ccc12	> 100 µM	> 100 µM	59.8 µM	> 100 µM
C[C@@H]1CN(CC(=O)N2CC(C)(C)c3nc(CO)c(Cc4ccc(F)cc4)cc32)[C@@H](CN2CCOC[C@H]2C)CN1	0.162 µM	> 100 µM	37 µM	> 100 µM
Fc1cccc(COc2ccc(Nc3ncnc4cc(-c5ccc[nH]5)sc34)cc2Cl)c1	0.977 µM	14.9 µM	0.0802 µM	2.76 µM
O=C1C(Cl)=C(Nc2cccc(O)c2)C(=O)N1c1cc(Cl)c(Cl)cc1Cl	–	–	20.3 µM	54.7 µM
COc1ccc(-c2cn(-c3ccccc3)c(-c3ccccc3)n2)cc1OC	2.86 µM	18.5 µM	2.72 µM	13.1 µM
Cn1ccnc1C(=O)/C=C/c1ccc(CC(=O)Nc2ccccc2)cc1	2.95 µM	7.54 µM	1.13 µM	10.3 µM
Fc1ccc2[nH]c3c(NCCCN4CCOCC4)ncnc3c2c1	22.5 µM	99.4 µM	41.5 µM	> 100 µM
OCc1ccc(-c2nn(Cc3ccccc3)c3ccccc23)o1	17.3 µM and 22.7 µM	37.4 µM and 53 µM	4.08 µM and 1.69 µM	24.8 µM and 57.1 µM
Clc1nc(Cl)c2ncn(Cc3ccc(COc4cccc(OCc5ccc(Cn6cnc7c(Cl)nc(Cl)nc76)cc5)c4)cc3)c2n1	25.6 µM	> 100 µM	28.9 µM	> 100 µM
C=C1C(=O)O[C@H]2[C@H]1CC/C(COC(=O)N1CCC[C@H]1C(=O)Nc1ccc(OC)c(C(N)=O)c1O)=C\CC[C@@]1(C)O[C@@H]21	1.62 µM	5.12 µM	2.38 µM	9.55 µM
CC(=O)OCC1OC(n2ccc(=O)[nH]c2=O)C(OC(C)=O)C1OC(C)=O (stereo not drawn)	> 100 µM	> 100 µM	> 100 µM	> 100 µM
CCN(Cc1ccccc1OC)c1ccc(CO)c(Cl)c1	12.8 µM	26 µM	0.566 µM	12.3 µM
O=C1/C(=C/c2ccc(O)cc2)COc2ccc(-c3ccccc3)cc21	2.64 µM	13 µM	2.8 µM	12.4 µM
Clc1nc(Cl)c2c(ncn2C/C=C\Cn2cnc3c(Cl)nc(Cl)nc32)n1	1.61 µM	2.97 µM	1.45 µM	3.17 µM
O=C(CCl)N1c2ccccc2Sc2c1ccc1ccccc21	1.3 µM	2.63 µM	2.52 µM	6.47 µM
C[C@H]1[C@H](C)CC[C@]2(C(=O)O)CC[C@]3(C)C(=CC[C@@H]4[C@@]5(C)C/C(=C/c6cccnc6)[C@H](O)C(C)(C)[C@@H]5CC[C@]43C)[C@H]12	18.3 µM	> 100 µM	12.1 µM	> 100 µM
COc1ccc2c(c1)OC(N(C(C)=O)C(C)=O)=C(C#N)C2c1ccc(F)cc1 (stereo not drawn)	2.22 µM	40.2 µM	0.593 µM	> 100 µM
C[C@@H]1COCCN1c1cc(C2(S(C)(=N)=O)CC2)nc(-c2ccnc3[nH]ccc23)n1 (stereo partly drawn)	–	–	0.528 µM	70.2 µM
CC[C@H](CC#N)OC(=O)N[C@@H](C)c1cccc(NC(=O)Nc2ccc(-c3cnco3)c(OC)c2)c1	0.238 µM	34 µM	0.0458 µM	18.2 µM
CN(C)C(=S)N=Nc1c(O)[nH]c2ccccc12	0.763 µM	20.8 µM	0.552 µM	13.3 µM
Nc1cc(N)c(N)cc1N	–	–	1.79 µM	3.81 µM
CN(CCOc1ccc(C#N)cc1)CCOc1ccc(C#N)cc1	20.5 µM	> 100 µM	> 100 µM	> 100 µM
CCCCN(Cc1ccc(F)cc1)c1ccc(CO)c(Cl)c1	19.1 µM	34.6 µM	2.3 µM	15 µM
CCOP(=O)(OCC)C(NC(c1ccccc1)c1ccccc1)c1cccc2ccccc12 (stereo not drawn)	23.8 µM	53.5 µM	4.04 µM	24.3 µM
CC(=O)O[C@@H]1CC2C(C)(C)CCCC2(C)C2=C1C(=O)C(C(C)C)=CC2=O (stereo partly drawn)	0.621 µM	3.05 µM	1.05 µM	> 100 µM
